ChEMBL document CHEMBL3885861, “Open TG-GATES”

Organism: Rattus norvegicus
Experiment: Open TG-GATES - Regimen: Single
Assay type: toxicity, organism-based, Sprague-Dawley
Set-up: regimen Single, gender Male, age 6 weeks
Conditions: in vivo, po, route gavage; for Bas / Eos / Fbg / Lym / Mono / RBC / Ret / WBC: tissue Blood; for KIDNEY_L / KIDNEY_R / KIDNEY_TOTAL: tissue Kidney
[1] = 60 mg/kg, 3 h, dose level Middle
[2] = 60 mg/kg, 3 h, tissue Plasma, dose level Middle
[3] = 60 mg/kg, 6 h, dose level Middle
[4] = 60 mg/kg, 6 h, tissue Plasma, dose level Middle
[5] = 60 mg/kg, 9 h, dose level Middle
[6] = 60 mg/kg, 9 h, tissue Plasma, dose level Middle
[7] = 60 mg/kg, 24 h, dose level Middle
[8] = 60 mg/kg, 24 h, tissue Plasma, dose level Middle
[9] = 200 mg/kg, 3 h, dose level High
[10] = 200 mg/kg, 3 h, tissue Plasma, dose level High
[11] = 200 mg/kg, 6 h, dose level High
[12] = 200 mg/kg, 6 h, tissue Plasma, dose level High
[13] = 200 mg/kg, 9 h, dose level High
[14] = 200 mg/kg, 9 h, tissue Plasma, dose level High
[15] = 200 mg/kg, 24 h, dose level High
[16] = 200 mg/kg, 24 h, tissue Plasma, dose level High

C=C[C@H]1C[N@@]2CC[C@H]1C[C@@H]2[C@@H](O)c1ccnc2ccc(OC)cc12 [QUINIDINE]
Bas [1]: 0%
Eos [1]: 0.4%
Fbg [1]: 295 mg/dL
Lym [1]: 73.2%
Mono [1]: 2.6%
RBC [1]: 588 x10_4/ul
Ret [1]: 7.6%
WBC [1]: 87.1 x10_2/uL
KIDNEY_L [1]: 1 g
KIDNEY_R [1]: 1 g
KIDNEY_TOTAL [1]: 2 g
ALP [2]: 1472.8 IU/L
CRE [2]: 0.2 mg/dL
DBIL [2]: 0.002 mg/dL
IP [2]: 9.1 mg/dL
K [2]: 4 meq/L
LDH [2]: 131.2 IU/L
Na [2]: 140.6 meq/L
PL [2]: 148.2 mg/dL
RALB [2]: 2.9 g/dL
TBIL [2]: 0.026 mg/dL
TG [2]: 56.2 mg/dL
TP [2]: 5.2 g/dL
gamma-GTP [2]: 2.2 IU/L
TERMINAL_BW [3]: 218.5 g
Bas [3]: 0%
Eos [3]: 0.8%
Fbg [3]: 301.2 mg/dL
Lym [3]: 79.8%
Mono [3]: 2.2%
RBC [3]: 623.4 x10_4/ul
Ret [3]: 6.6%
WBC [3]: 77.2 x10_2/uL
KIDNEY_L [3]: 1 g
KIDNEY_R [3]: 1 g
KIDNEY_TOTAL [3]: 2 g
ALP [4]: 1426.2 IU/L
CRE [4]: 0.2 mg/dL
DBIL [4]: 0.002 mg/dL
IP [4]: 9.1 mg/dL
K [4]: 4.3 meq/L
LDH [4]: 136.2 IU/L
Na [4]: 142.6 meq/L
PL [4]: 149.4 mg/dL
RALB [4]: 3 g/dL
TBIL [4]: 0.022 mg/dL
TG [4]: 83.2 mg/dL
TP [4]: 5.3 g/dL
gamma-GTP [4]: 1.4 IU/L
TERMINAL_BW [5]: 207.3 g
Bas [5]: 0%
Eos [5]: 0.8%
Fbg [5]: 300 mg/dL
Lym [5]: 77%
Mono [5]: 1.6%
RBC [5]: 622.8 x10_4/ul
Ret [5]: 6.8%
WBC [5]: 59.2 x10_2/uL
KIDNEY_L [5]: 1 g
KIDNEY_R [5]: 1 g
KIDNEY_TOTAL [5]: 2 g
ALP [6]: 1460.8 IU/L
CRE [6]: 0.2 mg/dL
DBIL [6]: 0.002 mg/dL
IP [6]: 9.6 mg/dL
K [6]: 4.4 meq/L
LDH [6]: 141.8 IU/L
Na [6]: 143.8 meq/L
PL [6]: 139.8 mg/dL
RALB [6]: 3 g/dL
TBIL [6]: 0.024 mg/dL
TG [6]: 74 mg/dL
TP [6]: 5.4 g/dL
gamma-GTP [6]: 1 IU/L
TERMINAL_BW [7]: 225.2 g
Bas [7]: 0%
Eos [7]: 0.8%
Fbg [7]: 337.8 mg/dL
Lym [7]: 72.4%
Mono [7]: 3.4%
RBC [7]: 650.2 x10_4/ul
Ret [7]: 6.9%
WBC [7]: 95.3 x10_2/uL
KIDNEY_L [7]: 1 g
KIDNEY_R [7]: 1 g
KIDNEY_TOTAL [7]: 2 g
ALP [8]: 1697 IU/L
CRE [8]: 0.1 mg/dL
DBIL [8]: 0 mg/dL
IP [8]: 8.1 mg/dL
K [8]: 4.1 meq/L
LDH [8]: 181.4 IU/L
Na [8]: 141 meq/L
RALB [8]: 3 g/dL
TBIL [8]: 0.014 mg/dL
TP [8]: 5.6 g/dL
gamma-GTP [8]: 1.4 IU/L
TERMINAL_BW [9]: 218.1 g
Bas [9]: 0%
Eos [9]: 0.8%
Fbg [9]: 267 mg/dL
Lym [9]: 76.2%
Mono [9]: 2.2%
RBC [9]: 571.6 x10_4/ul
Ret [9]: 6.9%
WBC [9]: 60.8 x10_2/uL
KIDNEY_L [9]: 1 g
KIDNEY_R [9]: 1 g
KIDNEY_TOTAL [9]: 2 g
ALP [10]: 1429.4 IU/L
CRE [10]: 0.2 mg/dL
DBIL [10]: 0.002 mg/dL
GLC [10]: 172 mg/dL
IP [10]: 9.1 mg/dL
K [10]: 4 meq/L
LDH [10]: 121 IU/L
Na [10]: 140.6 meq/L
PL [10]: 126.8 mg/dL
RALB [10]: 2.9 g/dL
TBIL [10]: 0.02 mg/dL
TC [10]: 66.2 mg/dL
TG [10]: 46.8 mg/dL
TP [10]: 5.1 g/dL
gamma-GTP [10]: 1.4 IU/L
TERMINAL_BW [11]: 221.5 g
Bas [11]: 0%
Eos [11]: 0.8%
Fbg [11]: 318.2 mg/dL
Lym [11]: 76.4%
Mono [11]: 2.2%
RBC [11]: 584.8 x10_4/ul
Ret [11]: 7.5%
WBC [11]: 76 x10_2/uL
KIDNEY_L [11]: 1 g
KIDNEY_R [11]: 1 g
KIDNEY_TOTAL [11]: 2 g
ALP [12]: 1392.8 IU/L
CRE [12]: 0.2 mg/dL
DBIL [12]: 0.004 mg/dL
IP [12]: 8.7 mg/dL
K [12]: 4.3 meq/L
LDH [12]: 181.8 IU/L
Na [12]: 142 meq/L
RALB [12]: 3 g/dL
TBIL [12]: 0.024 mg/dL
TC [12]: 86.4 mg/dL
TG [12]: 55.4 mg/dL
TP [12]: 5.4 g/dL
gamma-GTP [12]: 1.2 IU/L
TERMINAL_BW [13]: 218.2 g
Bas [13]: 0%
Eos [13]: 0.8%
Fbg [13]: 309.8 mg/dL
Lym [13]: 74%
Mono [13]: 1.6%
RBC [13]: 591 x10_4/ul
Ret [13]: 6.5%
WBC [13]: 63.2 x10_2/uL
KIDNEY_L [13]: 1 g
KIDNEY_R [13]: 1 g
KIDNEY_TOTAL [13]: 2 g
ALP [14]: 1558.2 IU/L
CRE [14]: 0.1 mg/dL
DBIL [14]: 0.004 mg/dL
IP [14]: 8.9 mg/dL
K [14]: 4.4 meq/L
LDH [14]: 118.4 IU/L
Na [14]: 142.6 meq/L
PL [14]: 148.2 mg/dL
RALB [14]: 3 g/dL
TBIL [14]: 0.028 mg/dL
TG [14]: 71.6 mg/dL
TP [14]: 5.4 g/dL
gamma-GTP [14]: 1.2 IU/L
TERMINAL_BW [15]: 231.5 g
Bas [15]: 0%
Eos [15]: 0.8%
Fbg [15]: 319.6 mg/dL
Lym [15]: 74.8%
Mono [15]: 3%
RBC [15]: 633.6 x10_4/ul
Ret [15]: 7.1%
WBC [15]: 84.6 x10_2/uL
KIDNEY_L [15]: 1 g
KIDNEY_R [15]: 1.1 g
KIDNEY_TOTAL [15]: 2.1 g
ALP [16]: 1496.4 IU/L
CRE [16]: 0.1 mg/dL
DBIL [16]: 0.002 mg/dL
IP [16]: 9.1 mg/dL
K [16]: 4.1 meq/L
LDH [16]: 144.2 IU/L
Na [16]: 141 meq/L
PL [16]: 146.8 mg/dL
RALB [16]: 3 g/dL
TBIL [16]: 0.01 mg/dL
TP [16]: 5.6 g/dL
gamma-GTP [16]: 1.6 IU/L
